# Values of other authors, collected in patent publication US20140080711A1, “SUSPENSION OF PARTICLES COMPRISING CYCLOPROPENE COMPLEXES DISPERSED IN A RESIN MATRIX” (AgroFresh Inc., priority 2012, published 2014).
# Test system: ethylene receptors
smiles,measurement,value
"CC1=CC1 [Sample 1-MCP, 1-methylcyclopropene]",affinity for the receptor relative to that of ethylene,approximately 10 times
